Measured values as given in paper PMC11939361, “diAcCA, a Pro-Drug for Carnosic Acid That Activates the Nrf2 Transcriptional Pathway, Shows Efficacy in the 5xFAD Transgenic Mouse Model of Alzheimer’s Disease” (Antioxidants, 2025).
Several values for one entry are separate records, joined by “and”; a condition that tells them apart may be missing. Equal values may be shown once. Entries after “also recorded” stand apart in the source; their conditions may differ. Read-outs that look alike come from different tables or passages of the source.

How the values were obtained:
in vivo = details: for AUC(0-inf): AUCINF_obs; for AUC(0-t): AUClast
Procedure: (§1) We tested both CA and diAcCA compounds by oral gavage/PO at 10 mg/kg. Analysis was performed by LC-MS in the Scripps Florida Drug Development Core (Jupiter, FL, USA). The compounds were formulated in olive oil. CA went into the oil with minimal stirring, but diAcCA required longer stirring. Blood was collected in hematocrit tubes and centrifuged. […] Drug is therefore likely absorbed via enterocyte passage and through chylomicron absorbance, complicating the early time points of the PK curves.
(§2) Therefore, we decided to pre-weigh the CA into a vial and, in the vivarium, rapidly dissolve the compound in DMSO and then add Tween80/saline. The compound was dosed within five minutes of being dissolved, and the final concentrations were 5% DMSO and 95% of a 5% Tween80 solution in saline. […] Oral clearance calculations assume 100% bioavailability.
(§3) We also determined the stability and bioavailability of diAcCA compared to CA. For this purpose, individual mice were administered CA or diAcCA IV or via oral gavage/PO. For CA, the doses were 3 mg/kg for the IV route and 10 mg/kg for oral gavage/PO, and for diAcCA 10 mg/kg by oral gavage/PO.

[1] = cited from earlier work
[2] = Shelf life / stability of the compound over time; format: physicochemical; details: storage (CA: even if kept in the dark and cold)
[3] = in vivo; for AUC%Extrap: mouse
Procedure: as §1, §2, §3

[4] = cited from earlier work; remark: listed apart in the source
[5] = test system: hiPSC-derived microglia (hiMG); assay: hiMG transplanted into humanized mouse brain, inflammatory markers; format: in vivo, human
Procedure: The next day, immunostaining was performed on brain sections after 3 washes in PBS and incubation in the appropriate secondary antibody solution on a shaker for 2 h at room temperature. Secondary antibodies included Alexa 488 (A11008, 1:500, goat anti-rabbit, Life Technologies, Carlsbad, CA, USA) and Alexa 555 (A21424, 1:500, goat anti-mouse, Life Technologies). The sections were again washed with PBS 3 times, mounted on Superfrost plus slides (12-550-15, Fisher Scientific, Waltham, MA, USA) and dried at room temperature. […] For each brain, 3–6 images were acquired for each individual marker using a confocal fluorescence microscope (Nikon Eclipse Ti2) (Figure 1, Figure 2 and Figure 3, Supplementary Figure S1). Post image processing, quantification was performed using Fiji ImageJ (1.54f). For the Iba1-stained slides, a mask was made of cells co-labeled for HuNu and Iba1, and then caspase 1 staining was measured. […] For quantification, NeuN, Synapsin I, and GFAP staining were compared between groups by mean fluorescence intensity (MFI), Iba1 and caspase-1 staining was compared by integrated density (ID), Aβ and pTau staining were compared by % area of plaques/aggregates, as previously described. […]

[6] = male, C57Bl/6, mouse, po, 10 mg/kg
[7] = mouse, po, 10 mg/kg, Plasma concentration of carnosic acid

`CC(C)c1cc2c(c(O)c1O)[C@@]1(C(=O)O)CCCC(C)(C)[C@@H]1CC2` [CA, carnosic acid] showed an AUC(0-inf) (in vivo; male, C57Bl/6, mouse, iv, 3 mg/kg) of 15000 ng·h/mL, a clearance (in vivo; male, C57Bl/6, mouse, iv, 3 mg/kg, Cl_obs) of 3.3 mL/min/kg and an MRT inf (in vivo; male, C57Bl/6, mouse, iv, 3 mg/kg, MRTINF_obs) of 5.46 h. For the same molecule, the half-life (in vivo; male, C57Bl/6, mouse, iv, 3 mg/kg, T1/2) was 13 h, the AUC(0-inf) (in vivo; [6]) was 10700 ng·h/mL and the bioavailability (in vivo; male, C57Bl/6, mouse, po, 10 mg/kg, F%) was 16%. The half-life (in vivo; male, C57Bl/6, mouse, po, 10 mg/kg, T1/2) was 19.9 h, the AUC(0-inf) (in vivo; mouse, iv, 3 mg/kg) was 20100 ng·h/mL and the AUC(0-t) (in vivo; mouse, iv, 3 mg/kg) was 59.5 µM·h. The half-life (in vivo; mouse, iv, 3 mg/kg, t1/2) was 11.9 h, the Tmax (in vivo; mouse, iv, 3 mg/kg) was 0.14 h and the Cmax (in vivo; mouse, iv, 5 mg/kg, mean Cmax of CA in plasma) was 98.5 µM. It also gave a half-life (in vivo; mouse, iv, average half-life) of 11.9 h, a half-life (in vivo; mouse, iv, half-life) of roughly 12 h and an AUC(0-inf) (in vivo; mouse, po, 10 mg/kg) of 9710 ng·h/mL. For the same molecule, the AUC(0-t) (in vivo; mouse, po, 10 mg/kg) was 28 µM·h, the Cmax (in vivo; mouse, po, 10 mg/kg, Cmax of CA in plasma) was 4.45 µM and the concentration at 480 min (in vivo; [7]) was 1 µM and 332 ng/mL. The concentration at 4320 min (in vivo; [7]) was 64.4 nM and 21.4 ng/mL, the half-life (in vivo; mouse, po, 10 mg/kg, average half-life) was 16.3 h and the Cmax (in vivo; mouse, po, 10 mg/kg, mean Cmax of CA) was 4.45 µM. The half-life (in vivo; mouse, po, 10 mg/kg, t1/2) was 16.3 h, the Tmax (in vivo; mouse, po, 10 mg/kg) was 1.5 h and the LD50 [1] was 7100 mg/kg. The “shelf life / stability over time” value [2] was “shelf life of only a couple of months”, the “Calculated Concentration of carnosic acid in plasma” value ([3]; C57Bl/6, mouse, po, 6 h) was 618 ng/mL and the “CL*F” value [3, 6] was 2.7. For the same molecule, the AUC%Extrap ([3]; iv, 3 mg/kg) was 1.77%, the AUC%Extrap ([3]; po, 10 mg/kg) was 4.13% and the “brain levels as share of the plasma level at peak values” ([4]; PO and IV routes) was “approximately 10%”. For the same molecule, the “CA concentration in the brain, which is neuroprotective” value [4] was 1 to 2 µM, the “CA plasma concentration that produces the neuroprotective brain level” value [4] was 10 to 20 µM and the “inflammatory response (Iba1 and caspase-1 expression) of transplanted hiMG” value ([5]; hiMG activated by α-synuclein/Aβ aggregates with or without cognate antibodies, pretreated with CA (2 µM), 2 weeks after transplantation) was “significantly prevented this inflammatory reaction; also recorded: prevented this effect”. The “cleaved/activated caspase-1 integrated density (ID)” value ([5]; response to α-synuclein/Aβ aggregates in the presence of CA (2 µM), p = 0.0307) was “significant decrease”.
